Reference: BigSolDB 2.1

CC(=O)c1ccc(S(C)(=O)=O)cc1
solubility (mole fraction) (in cyclohexane, 278.15 K): 0.0049 | solubility (mole fraction) (in cyclohexane, 283.15 K): 0.0056 | solubility (mole fraction) (in cyclohexane, 288.15 K): 0.0065 | solubility (mole fraction) (in cyclohexane, 293.15 K): 0.0079 | solubility (mole fraction) (in cyclohexane, 298.15 K): 0.0091 | solubility (mole fraction) (in cyclohexane, 303.15 K): 0.0109 | solubility (mole fraction) (in cyclohexane, 308.15 K): 0.0129 | solubility (mole fraction) (in cyclohexane, 313.15 K): 0.0154 | solubility (mole fraction) (in cyclohexane, 318.15 K): 0.0182 | solubility (mole fraction) (in cyclohexane, 323.15 K): 0.0217 | solubility (mole fraction) (in cyclohexane, 328.15 K): 0.0255 | solubility (mole fraction) (in ethanol, 278.15 K): 0.0123 | solubility (mole fraction) (in ethanol, 283.15 K): 0.0137 | solubility (mole fraction) (in ethanol, 288.15 K): 0.0154 | solubility (mole fraction) (in ethanol, 293.15 K): 0.0172 | solubility (mole fraction) (in ethanol, 298.15 K): 0.0197 | solubility (mole fraction) (in ethanol, 303.15 K): 0.0221 | solubility (mole fraction) (in ethanol, 308.15 K): 0.0249 | solubility (mole fraction) (in ethanol, 313.15 K): 0.0283 | solubility (mole fraction) (in ethanol, 318.15 K): 0.0325 | solubility (mole fraction) (in ethanol, 323.15 K): 0.0381 | solubility (mole fraction) (in ethanol, 328.15 K): 0.0441 | solubility (mole fraction) (in ethyl acetate, 278.15 K): 0.0253 | solubility (mole fraction) (in ethyl acetate, 283.15 K): 0.027 | solubility (mole fraction) (in ethyl acetate, 288.15 K): 0.0295 | solubility (mole fraction) (in ethyl acetate, 293.15 K): 0.0326 | solubility (mole fraction) (in ethyl acetate, 298.15 K): 0.0361 | solubility (mole fraction) (in ethyl acetate, 303.15 K): 0.0402 | solubility (mole fraction) (in ethyl acetate, 308.15 K): 0.0446 | solubility (mole fraction) (in ethyl acetate, 313.15 K): 0.0501 | solubility (mole fraction) (in ethyl acetate, 318.15 K): 0.0565 | solubility (mole fraction) (in ethyl acetate, 323.15 K): 0.0639 | solubility (mole fraction) (in ethyl acetate, 328.15 K): 0.0745 | solubility (mole fraction) (in ethylene glycol, 278.15 K): 0.0179 | solubility (mole fraction) (in ethylene glycol, 283.15 K): 0.0194 | solubility (mole fraction) (in ethylene glycol, 288.15 K): 0.0211 | solubility (mole fraction) (in ethylene glycol, 293.15 K): 0.0238 | solubility (mole fraction) (in ethylene glycol, 298.15 K): 0.0273 | solubility (mole fraction) (in ethylene glycol, 303.15 K): 0.0307 | solubility (mole fraction) (in ethylene glycol, 308.15 K): 0.035 | solubility (mole fraction) (in ethylene glycol, 313.15 K): 0.0395 | solubility (mole fraction) (in ethylene glycol, 318.15 K): 0.045 | solubility (mole fraction) (in ethylene glycol, 323.15 K): 0.0507 | solubility (mole fraction) (in ethylene glycol, 328.15 K): 0.0597 | solubility (mole fraction) (in isobutanol, 278.15 K): 0.0074 | solubility (mole fraction) (in isobutanol, 283.15 K): 0.0083 | solubility (mole fraction) (in isobutanol, 288.15 K): 0.0094 | solubility (mole fraction) (in isobutanol, 293.15 K): 0.0108 | solubility (mole fraction) (in isobutanol, 298.15 K): 0.0124 | solubility (mole fraction) (in isobutanol, 303.15 K): 0.0142 | solubility (mole fraction) (in isobutanol, 308.15 K): 0.016 | solubility (mole fraction) (in isobutanol, 313.15 K): 0.0186 | solubility (mole fraction) (in isobutanol, 318.15 K): 0.0211 | solubility (mole fraction) (in isobutanol, 323.15 K): 0.0246 | solubility (mole fraction) (in isobutanol, 328.15 K): 0.0284 | solubility (mole fraction) (in methanol, 278.15 K): 0.0161 | solubility (mole fraction) (in methanol, 283.15 K): 0.0173 | solubility (mole fraction) (in methanol, 288.15 K): 0.019 | solubility (mole fraction) (in methanol, 293.15 K): 0.0215 | solubility (mole fraction) (in methanol, 298.15 K): 0.0246 | solubility (mole fraction) (in methanol, 303.15 K): 0.0281 | solubility (mole fraction) (in methanol, 308.15 K): 0.0321 | solubility (mole fraction) (in methanol, 313.15 K): 0.0369 | solubility (mole fraction) (in methanol, 318.15 K): 0.0421 | solubility (mole fraction) (in methanol, 323.15 K): 0.0481 | solubility (mole fraction) (in methanol, 328.15 K): 0.0568 | solubility (mole fraction) (in n-butanol, 278.15 K): 0.0087 | solubility (mole fraction) (in n-butanol, 283.15 K): 0.0096 | solubility (mole fraction) (in n-butanol, 288.15 K): 0.0111 | solubility (mole fraction) (in n-butanol, 293.15 K): 0.0125 | solubility (mole fraction) (in n-butanol, 298.15 K): 0.014 | solubility (mole fraction) (in n-butanol, 303.15 K): 0.016 | solubility (mole fraction) (in n-butanol, 308.15 K): 0.018 | solubility (mole fraction) (in n-butanol, 313.15 K): 0.0205 | solubility (mole fraction) (in n-butanol, 318.15 K): 0.0234 | solubility (mole fraction) (in n-butanol, 323.15 K): 0.0271 | solubility (mole fraction) (in n-butanol, 328.15 K): 0.0315 | solubility (mole fraction) (in n-hexane, 278.15 K): 0.003 | solubility (mole fraction) (in n-hexane, 283.15 K): 0.0038 | solubility (mole fraction) (in n-hexane, 288.15 K): 0.0049 | solubility (mole fraction) (in n-hexane, 293.15 K): 0.0062 | solubility (mole fraction) (in n-hexane, 298.15 K): 0.0077 | solubility (mole fraction) (in n-hexane, 303.15 K): 0.0099 | solubility (mole fraction) (in n-hexane, 308.15 K): 0.0121 | solubility (mole fraction) (in n-hexane, 313.15 K): 0.0146 | solubility (mole fraction) (in n-hexane, 318.15 K): 0.0171 | solubility (mole fraction) (in n-hexane, 323.15 K): 0.0204 | solubility (mole fraction) (in n-hexane, 328.15 K): 0.0241 | solubility (mole fraction) (in n-propanol, 278.15 K): 0.0104 | solubility (mole fraction) (in n-propanol, 283.15 K): 0.0114 | solubility (mole fraction) (in n-propanol, 288.15 K): 0.0129 | solubility (mole fraction) (in n-propanol, 293.15 K): 0.0144 | solubility (mole fraction) (in n-propanol, 298.15 K): 0.0162 | solubility (mole fraction) (in n-propanol, 303.15 K): 0.0185 | solubility (mole fraction) (in n-propanol, 308.15 K): 0.021 | solubility (mole fraction) (in n-propanol, 313.15 K): 0.0241 | solubility (mole fraction) (in n-propanol, 318.15 K): 0.0273 | solubility (mole fraction) (in n-propanol, 323.15 K): 0.0318 | solubility (mole fraction) (in n-propanol, 328.15 K): 0.0365
